# Laboratory results taken from ChEMBL document CHEMBL5465560, “Selectivity Literature for EUbOPEN Chemogenomic Library” (2024).
# Tests used:
# [1] = system: T1, Receptor-type tyrosine-protein kinase FLT3 (Homo sapiens), P36888 [D835Y]; details: at 10 µM
# T1 sequence (whole entry): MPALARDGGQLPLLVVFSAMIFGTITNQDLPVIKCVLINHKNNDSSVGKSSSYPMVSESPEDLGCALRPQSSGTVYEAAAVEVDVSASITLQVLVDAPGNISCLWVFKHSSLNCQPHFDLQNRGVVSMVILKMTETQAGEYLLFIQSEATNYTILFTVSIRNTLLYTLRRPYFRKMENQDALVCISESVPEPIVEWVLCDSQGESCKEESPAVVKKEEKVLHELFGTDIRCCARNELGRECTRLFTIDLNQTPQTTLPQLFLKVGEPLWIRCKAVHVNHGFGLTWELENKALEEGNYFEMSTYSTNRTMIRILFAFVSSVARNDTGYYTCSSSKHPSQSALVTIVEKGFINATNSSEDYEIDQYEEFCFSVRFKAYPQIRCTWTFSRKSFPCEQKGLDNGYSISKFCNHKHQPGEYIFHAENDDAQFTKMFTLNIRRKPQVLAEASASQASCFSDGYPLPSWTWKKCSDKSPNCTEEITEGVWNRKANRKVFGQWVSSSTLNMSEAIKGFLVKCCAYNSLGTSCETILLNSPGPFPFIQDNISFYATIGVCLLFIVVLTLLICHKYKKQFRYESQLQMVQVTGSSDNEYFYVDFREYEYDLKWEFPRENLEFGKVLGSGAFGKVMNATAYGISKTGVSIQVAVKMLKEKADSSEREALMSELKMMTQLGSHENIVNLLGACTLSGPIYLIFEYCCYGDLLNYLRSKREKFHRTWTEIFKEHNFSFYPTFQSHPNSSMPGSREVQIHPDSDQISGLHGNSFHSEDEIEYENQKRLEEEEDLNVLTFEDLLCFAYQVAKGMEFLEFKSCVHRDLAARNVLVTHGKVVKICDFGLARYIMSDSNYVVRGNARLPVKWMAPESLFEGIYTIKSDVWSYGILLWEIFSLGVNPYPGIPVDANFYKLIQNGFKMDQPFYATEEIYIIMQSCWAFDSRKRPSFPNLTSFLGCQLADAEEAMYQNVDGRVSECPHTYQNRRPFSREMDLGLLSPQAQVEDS
# [2] = biological target: T2, Serine/threonine-protein kinase ICK (Homo sapiens) (UniProt Q9UPZ9); experiment: Selectivity interaction (KinomeScan (DiscoverX)) EUB0001049a ICK; details: at 1 µM
# T2 sequence (whole entry): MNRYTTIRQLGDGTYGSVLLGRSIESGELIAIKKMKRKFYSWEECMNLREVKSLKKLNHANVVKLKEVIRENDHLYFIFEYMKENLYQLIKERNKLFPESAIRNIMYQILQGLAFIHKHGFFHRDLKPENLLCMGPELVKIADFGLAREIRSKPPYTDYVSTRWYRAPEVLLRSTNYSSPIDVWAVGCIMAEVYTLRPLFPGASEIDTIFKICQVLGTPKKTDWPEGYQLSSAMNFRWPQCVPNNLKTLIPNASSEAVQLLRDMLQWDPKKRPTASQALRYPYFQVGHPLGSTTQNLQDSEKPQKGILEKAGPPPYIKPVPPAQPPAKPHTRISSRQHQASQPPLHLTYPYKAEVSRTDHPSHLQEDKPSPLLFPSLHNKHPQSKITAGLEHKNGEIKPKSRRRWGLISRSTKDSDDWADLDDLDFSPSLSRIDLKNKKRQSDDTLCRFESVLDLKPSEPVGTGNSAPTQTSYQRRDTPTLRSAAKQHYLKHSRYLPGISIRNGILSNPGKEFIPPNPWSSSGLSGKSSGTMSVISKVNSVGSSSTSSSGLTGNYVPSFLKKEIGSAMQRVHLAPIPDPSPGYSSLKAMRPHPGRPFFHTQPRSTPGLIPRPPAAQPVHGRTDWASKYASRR
# [3] = biological target: Rho-associated protein kinase 2 (Homo sapiens, UniProt O75116); experiment: Selectivity interaction (KinomeScan (DiscoverX)) EUB0000695a ROCK2; details: at 100 nM
# Rho-associated protein kinase 2, sequence (O75116 whole entry, looked up): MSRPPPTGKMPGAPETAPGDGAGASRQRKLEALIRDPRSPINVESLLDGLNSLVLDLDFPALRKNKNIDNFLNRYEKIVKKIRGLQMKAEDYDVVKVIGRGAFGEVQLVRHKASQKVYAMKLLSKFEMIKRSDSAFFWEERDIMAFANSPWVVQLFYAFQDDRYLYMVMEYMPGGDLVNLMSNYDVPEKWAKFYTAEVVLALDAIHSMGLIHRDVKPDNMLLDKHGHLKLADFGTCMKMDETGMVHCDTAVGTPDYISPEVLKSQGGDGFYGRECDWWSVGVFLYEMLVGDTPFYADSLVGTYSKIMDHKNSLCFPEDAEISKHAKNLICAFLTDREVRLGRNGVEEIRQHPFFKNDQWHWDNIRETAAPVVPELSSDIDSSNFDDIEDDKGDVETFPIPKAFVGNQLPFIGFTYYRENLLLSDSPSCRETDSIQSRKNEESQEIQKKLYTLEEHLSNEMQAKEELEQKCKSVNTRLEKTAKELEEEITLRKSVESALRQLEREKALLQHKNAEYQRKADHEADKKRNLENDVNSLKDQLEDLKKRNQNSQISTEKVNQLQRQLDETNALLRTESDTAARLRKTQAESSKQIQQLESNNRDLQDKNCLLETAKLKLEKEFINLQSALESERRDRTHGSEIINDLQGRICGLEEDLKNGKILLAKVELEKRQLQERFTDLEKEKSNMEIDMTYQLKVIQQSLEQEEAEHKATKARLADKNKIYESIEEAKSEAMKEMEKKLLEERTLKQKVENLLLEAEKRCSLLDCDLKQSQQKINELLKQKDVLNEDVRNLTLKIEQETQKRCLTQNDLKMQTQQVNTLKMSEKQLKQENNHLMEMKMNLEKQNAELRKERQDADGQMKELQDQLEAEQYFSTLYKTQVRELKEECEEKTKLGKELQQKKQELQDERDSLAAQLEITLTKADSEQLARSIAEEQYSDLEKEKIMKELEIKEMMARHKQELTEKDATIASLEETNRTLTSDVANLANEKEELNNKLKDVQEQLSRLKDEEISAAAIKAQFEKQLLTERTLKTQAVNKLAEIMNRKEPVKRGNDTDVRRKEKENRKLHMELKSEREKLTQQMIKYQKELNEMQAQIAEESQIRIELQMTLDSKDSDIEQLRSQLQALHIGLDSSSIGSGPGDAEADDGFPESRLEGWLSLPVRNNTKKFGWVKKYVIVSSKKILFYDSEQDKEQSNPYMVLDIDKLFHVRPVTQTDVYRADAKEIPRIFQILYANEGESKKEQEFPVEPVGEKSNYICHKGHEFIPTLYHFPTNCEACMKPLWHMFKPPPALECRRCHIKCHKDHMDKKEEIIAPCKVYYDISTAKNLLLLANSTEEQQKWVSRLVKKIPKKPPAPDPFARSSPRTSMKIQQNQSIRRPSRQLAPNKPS
# [4] = biological target: Platelet-derived growth factor receptor alpha (Homo sapiens, UniProt P16234); experiment: Selectivity interaction (Upstate Kinase Profiler service (Millipore)) EUB0000056c PDGFRA; details: at 1 µM
# Platelet-derived growth factor receptor alpha, sequence (P16234 whole entry): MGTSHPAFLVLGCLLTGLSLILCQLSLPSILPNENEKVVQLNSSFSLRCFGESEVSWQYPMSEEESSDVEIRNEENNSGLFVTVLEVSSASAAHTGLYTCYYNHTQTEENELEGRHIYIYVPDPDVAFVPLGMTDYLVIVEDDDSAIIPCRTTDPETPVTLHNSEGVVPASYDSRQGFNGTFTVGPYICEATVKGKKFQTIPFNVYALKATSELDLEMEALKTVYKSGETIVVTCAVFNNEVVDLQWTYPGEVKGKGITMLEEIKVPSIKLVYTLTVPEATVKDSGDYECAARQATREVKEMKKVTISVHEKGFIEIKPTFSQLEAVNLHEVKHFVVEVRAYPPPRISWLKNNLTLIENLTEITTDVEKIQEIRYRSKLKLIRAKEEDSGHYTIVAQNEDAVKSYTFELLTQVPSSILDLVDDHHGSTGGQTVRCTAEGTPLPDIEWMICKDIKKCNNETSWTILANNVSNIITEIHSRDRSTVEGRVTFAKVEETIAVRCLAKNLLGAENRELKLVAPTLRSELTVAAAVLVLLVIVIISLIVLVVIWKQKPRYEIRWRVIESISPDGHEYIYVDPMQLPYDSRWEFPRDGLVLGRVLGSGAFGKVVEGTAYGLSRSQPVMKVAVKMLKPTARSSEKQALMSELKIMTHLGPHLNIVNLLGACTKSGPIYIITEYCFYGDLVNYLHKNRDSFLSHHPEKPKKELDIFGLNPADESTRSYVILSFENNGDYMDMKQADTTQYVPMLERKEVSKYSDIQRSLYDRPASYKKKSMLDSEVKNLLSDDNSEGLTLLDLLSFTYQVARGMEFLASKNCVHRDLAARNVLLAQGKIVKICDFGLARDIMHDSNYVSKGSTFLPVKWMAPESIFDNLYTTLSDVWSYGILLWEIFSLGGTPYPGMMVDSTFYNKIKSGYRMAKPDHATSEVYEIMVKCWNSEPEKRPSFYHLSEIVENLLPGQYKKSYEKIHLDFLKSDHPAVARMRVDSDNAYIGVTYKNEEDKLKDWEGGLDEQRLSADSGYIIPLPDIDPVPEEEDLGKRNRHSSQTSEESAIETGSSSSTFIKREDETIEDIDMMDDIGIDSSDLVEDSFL
# [5] = biological target: Tyrosine-protein kinase Fer (Homo sapiens) (UniProt P16591); experiment: Selectivity interaction (KinomeScan (DiscoverX)) EUB0000655a FER; details: at 10 µM
# Tyrosine-protein kinase Fer (Homo sapiens), sequence (P16591 whole entry, looked up): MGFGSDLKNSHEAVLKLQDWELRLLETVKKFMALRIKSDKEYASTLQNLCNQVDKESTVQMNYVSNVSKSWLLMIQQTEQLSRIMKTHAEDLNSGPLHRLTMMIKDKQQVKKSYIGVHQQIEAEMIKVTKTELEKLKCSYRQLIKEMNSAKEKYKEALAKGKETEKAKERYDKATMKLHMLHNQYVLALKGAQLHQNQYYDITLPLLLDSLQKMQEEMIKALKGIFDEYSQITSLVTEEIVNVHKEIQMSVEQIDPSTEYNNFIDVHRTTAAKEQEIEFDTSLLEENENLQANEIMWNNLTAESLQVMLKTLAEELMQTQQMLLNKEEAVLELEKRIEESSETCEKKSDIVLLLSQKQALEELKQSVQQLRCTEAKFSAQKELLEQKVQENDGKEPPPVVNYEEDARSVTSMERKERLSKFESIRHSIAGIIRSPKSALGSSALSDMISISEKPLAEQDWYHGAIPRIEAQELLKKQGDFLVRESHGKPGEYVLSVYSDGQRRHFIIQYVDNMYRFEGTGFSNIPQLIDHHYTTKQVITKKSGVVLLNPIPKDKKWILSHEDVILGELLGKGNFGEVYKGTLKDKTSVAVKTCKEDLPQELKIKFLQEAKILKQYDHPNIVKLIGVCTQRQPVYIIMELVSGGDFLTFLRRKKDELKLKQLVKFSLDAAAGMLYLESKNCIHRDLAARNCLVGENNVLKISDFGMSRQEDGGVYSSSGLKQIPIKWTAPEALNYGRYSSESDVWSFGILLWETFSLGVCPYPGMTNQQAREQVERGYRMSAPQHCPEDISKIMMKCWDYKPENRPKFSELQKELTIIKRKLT
# [6] = biological target: T3, Serine/threonine-protein kinase TAO3 (Homo sapiens) (UniProt Q9H2K8); experiment: Selectivity interaction (KinomeScan (DiscoverX)) EUB0000655a TAOK3; details: at 10 µM
# T3 sequence (whole entry): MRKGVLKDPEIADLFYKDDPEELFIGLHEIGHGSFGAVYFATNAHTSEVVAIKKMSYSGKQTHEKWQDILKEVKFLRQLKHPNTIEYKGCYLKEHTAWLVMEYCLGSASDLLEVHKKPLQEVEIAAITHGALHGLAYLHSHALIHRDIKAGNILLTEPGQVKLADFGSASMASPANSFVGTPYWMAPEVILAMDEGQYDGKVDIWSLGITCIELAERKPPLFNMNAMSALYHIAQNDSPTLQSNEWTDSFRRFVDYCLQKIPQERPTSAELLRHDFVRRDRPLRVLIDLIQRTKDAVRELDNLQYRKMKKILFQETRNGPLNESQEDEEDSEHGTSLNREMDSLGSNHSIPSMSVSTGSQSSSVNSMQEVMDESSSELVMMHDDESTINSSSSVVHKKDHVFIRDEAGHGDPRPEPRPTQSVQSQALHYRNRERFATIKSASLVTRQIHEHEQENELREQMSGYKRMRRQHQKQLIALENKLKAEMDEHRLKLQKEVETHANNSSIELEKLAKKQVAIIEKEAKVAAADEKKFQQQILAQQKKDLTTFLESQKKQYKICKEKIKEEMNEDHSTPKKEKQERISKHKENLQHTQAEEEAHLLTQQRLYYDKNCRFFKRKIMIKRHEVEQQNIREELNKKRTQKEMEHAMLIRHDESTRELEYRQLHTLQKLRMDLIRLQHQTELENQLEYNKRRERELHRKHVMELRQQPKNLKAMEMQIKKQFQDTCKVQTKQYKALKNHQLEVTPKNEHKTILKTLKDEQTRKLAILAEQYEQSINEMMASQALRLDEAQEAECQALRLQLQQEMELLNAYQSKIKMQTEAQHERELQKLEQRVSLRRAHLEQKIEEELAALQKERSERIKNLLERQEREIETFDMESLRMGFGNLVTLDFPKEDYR
# [7] = biological target: 5'-AMP-activated protein kinase catalytic subunit alpha-1 (Homo sapiens, UniProt Q13131); experiment: Selectivity interaction (Kinase panel (KiNativ target engagement assay in Jurkat cells)) EUB0001635a PRKAA1; type: cell-based; details: Selectivity number of off-targets 0.0, Selectivity number of targets 233.0, Source Knowledge https://www.sciencedirect.com/science/article/pii/S2451945619300674?via%3Dihub, at 1 µM
# 5'-AMP-activated protein kinase catalytic subunit alpha-1, sequence (Q13131 whole entry, looked up): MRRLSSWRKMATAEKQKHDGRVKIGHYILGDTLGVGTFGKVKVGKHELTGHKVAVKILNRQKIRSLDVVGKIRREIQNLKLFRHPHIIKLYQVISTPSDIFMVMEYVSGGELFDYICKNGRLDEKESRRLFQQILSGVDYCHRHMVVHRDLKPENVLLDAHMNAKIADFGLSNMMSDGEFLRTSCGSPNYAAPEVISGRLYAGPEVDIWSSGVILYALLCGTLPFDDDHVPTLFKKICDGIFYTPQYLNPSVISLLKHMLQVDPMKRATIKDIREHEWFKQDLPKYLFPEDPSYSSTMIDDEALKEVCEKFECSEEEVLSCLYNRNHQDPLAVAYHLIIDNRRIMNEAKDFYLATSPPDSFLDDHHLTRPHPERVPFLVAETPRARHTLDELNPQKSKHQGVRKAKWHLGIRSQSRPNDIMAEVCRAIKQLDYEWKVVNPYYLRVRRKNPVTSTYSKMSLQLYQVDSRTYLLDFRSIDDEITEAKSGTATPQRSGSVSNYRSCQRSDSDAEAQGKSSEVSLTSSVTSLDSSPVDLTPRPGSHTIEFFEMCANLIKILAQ
# [8] = biological target: Eukaryotic translation initiation factor 2-alpha kinase 1 (Homo sapiens) (UniProt Q9BQI3); experiment: Selectivity interaction (KinomeScan (DiscoverX)) EUB0000666a EIF2AK1; details: at 10 µM
# Eukaryotic translation initiation factor 2-alpha kinase 1 (Homo sapiens), sequence (Q9BQI3 whole entry): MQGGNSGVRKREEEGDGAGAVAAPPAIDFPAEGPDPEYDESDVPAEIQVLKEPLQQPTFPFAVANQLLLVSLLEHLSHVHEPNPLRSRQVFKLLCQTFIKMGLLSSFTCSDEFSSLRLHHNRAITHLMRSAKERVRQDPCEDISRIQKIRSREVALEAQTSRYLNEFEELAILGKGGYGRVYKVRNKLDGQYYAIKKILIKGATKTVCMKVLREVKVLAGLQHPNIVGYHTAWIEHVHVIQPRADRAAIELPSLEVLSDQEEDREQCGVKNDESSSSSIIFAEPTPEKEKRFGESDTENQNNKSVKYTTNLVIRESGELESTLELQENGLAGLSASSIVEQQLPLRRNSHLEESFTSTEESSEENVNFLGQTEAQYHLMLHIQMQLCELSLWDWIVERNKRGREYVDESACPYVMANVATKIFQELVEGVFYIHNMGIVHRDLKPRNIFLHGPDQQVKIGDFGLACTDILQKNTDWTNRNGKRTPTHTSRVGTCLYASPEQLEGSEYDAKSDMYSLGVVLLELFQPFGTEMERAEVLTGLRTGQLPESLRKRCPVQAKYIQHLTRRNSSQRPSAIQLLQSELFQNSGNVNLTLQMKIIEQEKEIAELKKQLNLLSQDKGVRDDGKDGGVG
structure (smiles),measurement,setting,value
Cc1cc([C@@H](C)Nc2ccccc2C(=O)O)c2nc(N3CCOCC3)cc(=O)n2c1 [AZD-6482],% of control,[1],54%
COc1cc(Nc2nc(C)cc(-c3cnn4nc(OC)ccc34)n2)cc(C(F)(F)F)c1,% of control,[2],85%
Cc1cc(F)c(C(=O)Nc2cccc(-c3nncn3C(C)C)n2)cc1-n1cnc(C2CC2)c1,% of control,[3],81%
Cc1ccc(-c2ccc3c(ccc4sc5c(c43)NC[C@@H](C)NC5=O)n2)cn1,% of inhibition,[4],-24%
CN(C)CCOc1ccc(-c2nc(-c3ccncc3)c(-c3ccc4c(c3)CC/C4=N\O)[nH]2)cc1,% of control,[5],100%
same,% of control,[6],75%
C=CC(=O)Nc1ccc(C(=O)Nc2[nH]nc3c2CN(C(=O)N[C@H](CN(C)C)c2ccccc2)C3(C)C)cc1,% of engagement,[7],54.4%
O=C(NOC[C@H](O)CO)c1ccc(F)c(F)c1Nc1ccc(I)cc1F,% of control,[8],100%
